Experimental data taken from ChEMBL document CHEMBL4665869, “New thiazolopyrimidine as anticancer agents: Synthesis, biological evaluation, DNA binding, molecular modeling and ADMET study” (Bioorg Med Chem Lett, 2020).
In brackets after ≈: the same amount, converted by molar mass.

What was measured:
DNA = assay: Displacement of methyl green from DNA (unknown origin) assessed as DNA intercalation after 24 hrs by colorimetric assay; format: nucleic-acid assay
LOX IMVI = assay: Growth inhibition of human LOX IMVI cells at 10 uM relative to control; format: functional; settings: read-out: GI
MDA-MB-468 = assay: Growth inhibition of human MDA-MB-468 cells at 10 uM relative to control; format: functional; settings: read-out: GI
T47D = assay: Growth inhibition of human T47D cells at 10 uM relative to control; format: functional; settings: read-out: GI
CCRF-CEM = assay: Growth inhibition of human CCRF-CEM cells at 10 uM relative to control; format: functional; settings: read-out: GI
HL-60(TB) = assay: Growth inhibition of human HL-60(TB) cells at 10 uM relative to control; format: functional; settings: read-out: GI
K562 = assay: Growth inhibition of human K562 cells at 10 uM relative to control; format: functional; settings: read-out: GI
MOLT-4 = assay: Growth inhibition of human MOLT-4 cells at 10 uM relative to control; format: functional; settings: read-out: GI
RPMI-8226 = assay: Growth inhibition of human RPMI-8226 cells at 10 uM relative to control; format: functional; settings: read-out: GI
SR = assay: Growth inhibition of human SR cells at 10 uM relative to control; format: functional; settings: read-out: GI
A549 = assay: Growth inhibition of human A549 cells at 10 uM relative to control; format: functional; settings: read-out: GI
HOP-62 = assay: Growth inhibition of human HOP-62 cells at 10 uM relative to control; format: functional; settings: read-out: GI
HOP-92 = assay: Growth inhibition of human HOP-92 cells at 10 uM relative to control; format: functional; settings: read-out: GI
NCI-H226 = assay: Growth inhibition of human NCI-H226 cells at 10 uM relative to control; format: functional; settings: read-out: GI
NCI-H23 = assay: Growth inhibition of human NCI-H23 cells at 10 uM relative to control; format: functional; settings: read-out: GI
NCI-H322M = assay: Growth inhibition of human NCI-H322M cells at 10 uM relative to control; format: functional; settings: read-out: GI
NCI-H460 = assay: Growth inhibition of human NCI-H460 cells at 10 uM relative to control; format: functional; settings: read-out: GI
NCI-H522 = assay: Growth inhibition of human NCI-H522 cells at 10 uM relative to control; format: functional; settings: read-out: GI
SW-620 = assay: Growth inhibition of human SW-620 cells at 10 uM relative to control; format: functional; settings: read-out: GI
COLO 205 = assay: Growth inhibition of human COLO 205 cells at 10 uM relative to control; format: functional; settings: read-out: GI
HCC 2998 = assay: Growth inhibition of human HCC 2998 cells at 10 uM relative to control; format: functional; settings: read-out: GI
HCT-116 = assay: Growth inhibition of human HCT-116 cells at 10 uM relative to control; format: functional; settings: read-out: GI
HCT-15 = assay: Growth inhibition of human HCT-15 cells at 10 uM relative to control; format: functional; settings: read-out: GI
HT-29 = assay: Growth inhibition of human HT-29 cells at 10 uM relative to control; format: functional; settings: read-out: GI
KM12 = assay: Growth inhibition of human KM12 cells at 10 uM relative to control; format: functional; settings: read-out: GI
SF-268 = assay: Growth inhibition of human SF-268 cells at 10 uM relative to control; format: functional; settings: read-out: GI
SF-295 = assay: Growth inhibition of human SF-295 cells at 10 uM relative to control; format: functional; settings: read-out: GI
SF-539 = assay: Growth inhibition of human SF-539 cells at 10 uM relative to control; format: functional; settings: read-out: GI
SNB-19 = assay: Growth inhibition of human SNB-19 cells at 10 uM relative to control; format: functional; settings: read-out: GI
SNB-75 = assay: Growth inhibition of human SNB-75 cells at 10 uM relative to control; format: functional; settings: read-out: GI
U-251 = assay: Growth inhibition of human U-251 cells at 10 uM relative to control; format: functional; settings: read-out: GI
Malme-3M = assay: Growth inhibition of human Malme-3M cells at 10 uM relative to control; format: functional; settings: read-out: GI
M14 = assay: Growth inhibition of human M14 cells at 10 uM relative to control; format: functional; settings: read-out: GI
MDA-MB-435 = assay: Growth inhibition of human MDA-MB-435 cells at 10 uM relative to control; format: functional; settings: read-out: GI
SK-MEL-2 = assay: Growth inhibition of human SK-MEL-2 cells at 10 uM relative to control; format: functional; settings: read-out: GI
SK-MEL-28 = assay: Growth inhibition of human SK-MEL-28 cells at 10 uM relative to control; format: functional; settings: read-out: GI
SK-MEL-5 = assay: Growth inhibition of human SK-MEL-5 cells at 10 uM relative to control; format: functional; settings: read-out: GI
UACC-257 = assay: Growth inhibition of human UACC-257 cells at 10 uM relative to control; format: functional; settings: read-out: GI
UACC-62 = assay: Growth inhibition of human UACC-62 cells at 10 uM relative to control; format: functional; settings: read-out: GI
IGROV-1 = assay: Growth inhibition of human IGROV-1 cells at 10 uM relative to control; format: functional; settings: read-out: GI
OVCAR-4 = assay: Growth inhibition of human OVCAR-4 cells at 10 uM relative to control; format: functional; settings: read-out: GI
OVCAR-5 = assay: Growth inhibition of human OVCAR-5 cells at 10 uM relative to control; format: functional; settings: read-out: GI
OVCAR-8 = assay: Growth inhibition of human OVCAR-8 cells at 10 uM relative to control; format: functional; settings: read-out: GI
NCI/ADR-RES = assay: Growth inhibition of human NCI/ADR-RES cells at 10 uM relative to control; format: functional; settings: read-out: GI
SK-OV-3 = assay: Growth inhibition of human SK-OV-3 cells at 10 uM relative to control; format: functional; settings: read-out: GI
786-0 = assay: Growth inhibition of human 786-0 cells at 10 uM relative to control; format: functional; settings: read-out: GI
A498 = assay: Growth inhibition of human A498 cells at 10 uM relative to control; format: functional; settings: read-out: GI
ACHN = assay: Growth inhibition of human ACHN cells at 10 uM relative to control; format: functional; settings: read-out: GI
CAKI-1 = assay: Growth inhibition of human CAKI-1 cells at 10 uM relative to control; format: functional; settings: read-out: GI
RXF 393 = assay: Growth inhibition of human RXF 393 cells at 10 uM relative to control; format: functional; settings: read-out: GI
SN12C = assay: Growth inhibition of human SN12C cells at 10 uM relative to control; format: functional; settings: read-out: GI
TK-10 = assay: Growth inhibition of human TK-10 cells at 10 uM relative to control; format: functional; settings: read-out: GI
UO-31 = assay: Growth inhibition of human UO-31 cells at 10 uM relative to control; format: functional; settings: read-out: GI
DU-145 = assay: Growth inhibition of human DU-145 cells at 10 uM relative to control; format: functional; settings: read-out: GI
MCF7 = assay: Growth inhibition of human MCF7 cells at 10 uM relative to control; format: functional; settings: read-out: GI
MDA-MB-231 = assay: Growth inhibition of human MDA-MB-231 cells at 10 uM relative to control; format: functional; settings: read-out: GI
Hs-578T = assay: Growth inhibition of human Hs-578T cells at 10 uM relative to control; format: functional; settings: read-out: GI
BT-549 = assay: Growth inhibition of human BT-549 cells at 10 uM relative to control; format: functional; settings: read-out: GI

SMILES: CCOC(=O)C1=CSC2=NC(/C=C/c3ccc(C)cc3)=CC(c3ccc(C)cc3)N12 (centres undefined)
- IC50 (DNA): 31.49 µg/mL (≈ 75.6 µM)

SMILES: CC1=CSC2=NC(/C=C/c3ccc(Cl)cc3)=CC(c3ccc(Cl)cc3)N12 (centres undefined)
- IC50 (DNA): 50.91 µg/mL (≈ 127 µM)

SMILES: COc1ccc(/C=C/C2=CC(c3ccc(OC)cc3)N3C=C(C)SC3=N2)cc1 (centres undefined)
- IC50 (DNA): 41.37 µg/mL (≈ 106 µM)

SMILES: COc1ccc(/C=C/C2=CC(c3ccc(OC)cc3)N3C(C)=CSC3=N2)cc1 (centres undefined)
- IC50 (DNA): 42.5 µg/mL (≈ 109 µM)

SMILES: COc1cc(/C=C/C2=CC(c3cc(OC)c(OC)c(OC)c3)N3C=CSC3=N2)cc(OC)c1OC (centres undefined)
- IC50 (DNA): 55.42 µg/mL (≈ 112 µM)

SMILES: COc1ccc(/C=C/C2=CC(c3ccc(OC)c(OC)c3)N3C=CSC3=N2)cc1OC (centres undefined)
- inhibition of growth at 10 µM (LOX IMVI): < 10%
- inhibition of growth at 10 µM (MDA-MB-468): < 10%
- inhibition of growth at 10 µM (T47D): < 10%
- inhibition of growth at 10 µM (CCRF-CEM): < 10%
- inhibition of growth at 10 µM (HL-60(TB)): < 10%
- inhibition of growth at 10 µM (K562): < 10%
- inhibition of growth at 10 µM (MOLT-4): < 10%
- inhibition of growth at 10 µM (RPMI-8226): < 10%
- inhibition of growth at 10 µM (SR): 13.8%
- inhibition of growth at 10 µM (A549): < 10%
- inhibition of growth at 10 µM (HOP-62): < 10%
- inhibition of growth at 10 µM (HOP-92): < 10%
- inhibition of growth at 10 µM (NCI-H226): < 10%
- inhibition of growth at 10 µM (NCI-H23): < 10%
- inhibition of growth at 10 µM (NCI-H322M): < 10%
- inhibition of growth at 10 µM (NCI-H460): < 10%
- inhibition of growth at 10 µM (NCI-H522): < 10%
- inhibition of growth at 10 µM (SW-620): < 10%
- inhibition of growth at 10 µM (COLO 205): < 10%
- inhibition of growth at 10 µM (HCC 2998): < 10%
- inhibition of growth at 10 µM (HCT-116): < 10%
- inhibition of growth at 10 µM (HCT-15): < 10%
- inhibition of growth at 10 µM (HT-29): < 10%
- inhibition of growth at 10 µM (KM12): < 10%
- inhibition of growth at 10 µM (SF-268): < 10%
- inhibition of growth at 10 µM (SF-295): < 10%
- inhibition of growth at 10 µM (SF-539): < 10%
- inhibition of growth at 10 µM (SNB-19): < 10%
- inhibition of growth at 10 µM (SNB-75): < 10%
- inhibition of growth at 10 µM (U-251): < 10%
- inhibition of growth at 10 µM (Malme-3M): < 10%
- inhibition of growth at 10 µM (M14): < 10%
- inhibition of growth at 10 µM (MDA-MB-435): < 10%
- inhibition of growth at 10 µM (SK-MEL-2): < 10%
- inhibition of growth at 10 µM (SK-MEL-28): < 10%
- inhibition of growth at 10 µM (SK-MEL-5): < 10%
- inhibition of growth at 10 µM (UACC-257): 12.8%
- inhibition of growth at 10 µM (UACC-62): < 10%
- inhibition of growth at 10 µM (IGROV-1): < 10%
- inhibition of growth at 10 µM (OVCAR-4): < 10%
- inhibition of growth at 10 µM (OVCAR-5): < 10%
- inhibition of growth at 10 µM (OVCAR-8): < 10%
- inhibition of growth at 10 µM (NCI/ADR-RES): < 10%
- inhibition of growth at 10 µM (SK-OV-3): < 10%
- inhibition of growth at 10 µM (786-0): < 10%
- inhibition of growth at 10 µM (A498): 25.6%
- inhibition of growth at 10 µM (ACHN): < 10%
- inhibition of growth at 10 µM (CAKI-1): < 10%
- inhibition of growth at 10 µM (RXF 393): < 10%
- inhibition of growth at 10 µM (SN12C): < 10%
- inhibition of growth at 10 µM (TK-10): < 10%
- inhibition of growth at 10 µM (UO-31): 11.3%
- inhibition of growth at 10 µM (DU-145): < 10%
- inhibition of growth at 10 µM (MCF7): < 10%
- inhibition of growth at 10 µM (MDA-MB-231): < 10%
- inhibition of growth at 10 µM (Hs-578T): < 10%
- inhibition of growth at 10 µM (BT-549): < 10%
- IC50 (DNA): 30.05 µg/mL (≈ 68.8 µM)

SMILES: CC1=CN2C(=NC(/C=C/c3cccs3)=CC2c2cccs2)S1 (centres undefined)
- IC50 (DNA): 76.15 µg/mL (≈ 222 µM)
